Source: patent publication US9238003B2, “Extended or continuous wear silicone hydrogel contact lenses for the extended release of comfort molecules” (AUBURN UNIVERSITY, priority 2005, dated 2016)

How the values were obtained:
Format in all cases: physicochemical
[1] = Dynamic release of HA from hydrogel lenses in lacrimal solution (ELISA); details: largest HA, 1 million daltons; 6.5 mg HA per g PM
Description: Dynamic Release Studies. Dynamic release studies were conducted to measure how long a therapeutic contact lens would release drug in vitro under conditions similar to the eye surface. The studies are also able to reveal the order of the release.
The protocol for a kinetic release study begins with the synthesis of hydrogel as described previously. As each study was conducted in triplicate, three lenses were made of every HA-prepolymer formulation. A lacrimal solution isotonic with human tears (6.78 g/L NaCl, 2.18 g/L NaHCO3, 1.38 g/L Kcl, 0.084 g/L CaCl2 2H2O, pH 8) was pipetted into 50 mL centrifugation tubes, 20 mL per tube. Each lens was placed in a tube and incubated at 35EC on an orbital shaker. After measured time intervals, the lenses were extracted and deposited into fresh lacrimal solution. The lacrimal solution with HA released in it was stored at 4° C. until essayed. After data had been collected for 3-5 days, an ELISA assay for HA was used to determine the concentration in each release sample. If necessary, the samples were diluted to bring into the assay detection range.
Cumulative release curves were plotted for each lens formulation, and the data was used to calculate the rate of diffusion of HA from the hydrogel. The transport of the drug from the lens placed in a fluid environment was mathematically modeled. […]

[2] = Heat stability of HA solutions; details: heated 60 minutes
Description: The effect of heat conditions on HA solution was also assessed. In 2 mL microcentrifuge vials, 1 mL samples of HA solutions of 500 ng/mL and 10 μg/mL were heated to 105° C. and 121EC respectively. The 500 ng/mL samples were heated for 0 minutes, 5 minutes, 30 minutes and 60 minutes while the 10 μg/mL samples were heated for 15 minutes, 30 minutes, 45 minutes and 60 minutes. The sample vials were quenched in a room temperature water bath and assayed with an ELISA assay kit for HA.

[3] = Dynamic HPMC release studies, perfect sink (Sotax dissolution apparatus, DI water); details: soaked LFB lenses
Description: Dynamic HPMC Release Studies. Dynamic release studies were conducted to measure how long each therapeutic contact lens would release HPMC in-vitro. The studies were conducted with the perfect sink model in order to sustain the greatest driving force, using a Sotax Dissolution Apparatus (Horsham, Pa.), in which loaded lenses were placed in 250 mL of DI water (pH 6.4). Separate experiments were conducted to confirm the perfect sink volume.
In the Sotax apparatus, the release media was stirred at a constant rate of 30 rpm by paddles and kept at a constant temperature of 34° C. The average weight of the lenses out of the mold was 35 mg±6 mg. HPMC concentration in the release medium was determined via HPLC (Shimadzu, Japan) equipped with a refractive index detector. The mobile phase was deionized water, and a flow rate of 1 mL/min was maintained by the HPLC. A standard curve of refractive index and known HPLC concentration was established. Percent mass release curves were plotted for each lens.

[4] = Loading of HPMC into LFB lenses by soaking in aqueous HPMC solution
Text: The first step of this work was to assess the feasibility of loading HPMC directly into a lens. […] The mass uptake of various HPMC solutions is presented in Table 2 (showing mass loading of various HPMC concentrations and molecular weights).

[5] = Pre-polymer loading of HPMC into LFB lens formulation
Description: Synthesis of LFB Lenses and Synthesis of Imprinted LFB Lenses. Lenses were produced by mixing individual monomers of the LFB formulation. The monomers were kept refrigerated at 4° C. A typical formulation consisted of 1300 mg of Betacon macromer, 1300 mg of TRIS, and 1300 mg of DMA (referred to as the base formulation). The base formulation was equal parts of these monomers and used to calculate ratios of other components. Equal weights of EGDMA and PEG200DMA were added to a desired concentration anywhere between 0 and 10 wt % of the base formulation Imprinting monomers were then added between 0 and 10 wt % of the base formulation. Darocur 1173 was added to the solution to a concentration of 1% of the base formulation. The samples were thoroughly mixed by sonication for 30 minutes and then the comfort agent was added to the desired concentration. The formulations were exposed to high shear mixing for up to 1 minute and sonicated for at least 15 minutes to remove any dissolved air or air bubbles. After the comfort agent was added, the sample was sonicated and mixed until evenly dispersed.
A fixed volume was pipetted into polypropylene (PP) lens molds provided by CIBA Vision, Inc. The mass of formulation pipetted varied between 100 to 200 mg depending on the concentration of comfort agent. […]

Substance	time HA was diffusing out of the lens [1]	change in signal strength (heat degradation of large HA) ([2]; 500 ng/mL solution) [%]	change in concentration (heat degradation of large HA) ([2]; 10 μg/mL solution) [%]	Release Time After 7 Day Soak [3]	release time from soaked lenses [3]	Mass Loaded from Drug Solutions ([4]; 1 Day Soak, 0.1%) [μg/lens]	Mass Loaded from Drug Solutions ([4]; 1 Day Soak, 1%) [μg/lens]	Mass Loaded from Drug Solutions ([4]; 1 Day Soak, 10%) [μg/lens]	Mass Loaded from Drug Solutions ([4]; 2 Day Soak, 0.1%) [μg/lens]	Mass Loaded from Drug Solutions ([4]; 2 Day Soak, 1%) [μg/lens]	Mass Loaded from Drug Solutions ([4]; 2 Day Soak, 10%) [μg/lens]	Mass Loaded from Drug Solutions ([4]; 7 Day Soak, 0.1%) [μg/lens]	Mass Loaded from Drug Solutions ([4]; 7 Day Soak, 1%) [μg/lens]	Mass Loaded from Drug Solutions ([4]; 7 Day Soak, 10%) [μg/lens]	loading of HPMC limited by thickness ([5]; 100 μm swollen lens thickness)	maximum mass of HPMC loaded (pre-polymer loaded) ([5]; 350 μm thick lens)	loading after soaking in a solution for a week ([4]; any solution concentration) [μg/lens]
Hyaluronic Acid [HA]	up to 3 days	50	30														
hydroxypropyl methylcellulose [HPMC 10 KDa]				30 min	less than 30 minutes	0.32	4.1	5.4	0.21	3.2	6.9	1.2	5.7	2.9			
hydroxypropyl methylcellulose [HPMC 90 KDa]				None		0.09	0.07	0.4	0.09	0.65	0	0.01	0.48	0			
hydroxypropyl methylcellulose [HPMC 120 KDa]				None		0.001	0.003	0.004	0.08	0.04	0.01	0.006	0.2	0.1	~1,000 μg/lens	~8,000 μg/lens	≤ 0.2
